Publication PMC10122656, “Siglec-6 mediates the uptake of extracellular vesicles through a noncanonical glycolipid binding pocket” (Nature Communications, 2023)
Values joined by “and” are separate entries in the source; they are usually repeats but may differ in a detail not shown here. Identical values can stand only once.

Legend:
[1] = target: T1, CHO cells expressing Siglec-6 mutants (C46A, C172A, R to A mutants, F93A, L95A, G175M) (Homo sapiens, UniProt O43699, E88A); assay: Cell assay (liposome/EV binding, flow cytometry); format: cell-based; conditions: sheet Figure S28b, 3% GM3-DAG liposomes, E88A;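 also: AF647 fluorescence intensity from 0.1 mol% AF647–PEG45–DSPE in liposomes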
T1 construct: These new CHO cell lines are the full-length versions of the Siglecs; expressed in transfected cells
T1 sequence (O43699 27-453 E88A): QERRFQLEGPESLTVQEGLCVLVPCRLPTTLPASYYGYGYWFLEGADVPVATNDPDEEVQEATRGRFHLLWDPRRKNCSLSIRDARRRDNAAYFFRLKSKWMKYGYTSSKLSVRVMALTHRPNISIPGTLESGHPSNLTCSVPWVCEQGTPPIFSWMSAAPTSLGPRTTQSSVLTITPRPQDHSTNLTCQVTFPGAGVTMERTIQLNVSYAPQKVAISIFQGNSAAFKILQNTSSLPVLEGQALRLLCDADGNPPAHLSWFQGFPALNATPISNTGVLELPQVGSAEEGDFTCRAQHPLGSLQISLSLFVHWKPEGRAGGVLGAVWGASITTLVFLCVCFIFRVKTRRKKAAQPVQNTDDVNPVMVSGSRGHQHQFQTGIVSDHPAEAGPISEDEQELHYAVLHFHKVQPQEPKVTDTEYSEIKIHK
Protocol: (§1) Mutations were introduced into each Siglec via gene overlap extension PCR mutagenesis (primers were ordered through IDT). Mutagenesis primers can be found in Supplementary Tables 2 and 3 for the critical arginine mutants of the entire Siglec family and the additional Siglec-6 mutants respectively.
(§2) 200,000 cells/well were plated into a 96-well U-bottom microplate and centrifuged at 300 × g for 5 min. The cells were then resuspended in 50 µL of 50 µM liposome/50 µg/mL (protein concentration) of EV solution in DMEM F12 5% FBS and incubated at 37 °C for 30 min. Excess liposomes were then removed via centrifuged at 300 × g for 5 min followed by washing the cells with FACS solution. The cells were then resuspended in (1:250 V/V) anti-Siglec-flow buffer (1% V/V FBS, 500 µM, EDTA Hank’s Balanced Salt Solution pH 7.4), solution and left to rest on ice for 30 min. The cells were then centrifuged again at 300 × g for 5 min and the cells were resuspended in FACS buffer solution and were then ready for analysis by flow cytometry. Information regarding antibody clone, catalog number supplier, label isotype, and dilution can be found in Supplementary Table 6. The Siglec-positive cells were gated on for liposome-binding analysis (Supplementary Fig. 1b).
(§3) Flow cytometry measurements were collected on a 5-laser Fortessa X-20 (BD Bioscience). All the resulting data were analyzed using FlowJo (10.5.3) software (BD Biosciences).

[2] = target: T2, CHO cells expressing Siglec-6 mutants (C46A, C172A, R to A mutants, F93A, L95A, G175M) (Homo sapiens, UniProt O43699, C172A); assay: Cell assay (liposome/EV binding, flow cytometry); format: cell-based; conditions: sheet Figure S26a, 3% GM3-DAG liposomes, C172A;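 also: AF647 fluorescence intensity from 0.1 mol% AF647–PEG45–DSPE in liposomes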
T2 construct: These new CHO cell lines are the full-length versions of the Siglecs; expressed in transfected cells
T2 sequence (O43699 27-453 C172A): as the sequence (O43699 27-453 E88A) above, with A62E, C146A counted along it
Protocol: as §1, §2, §3

[3] = target: T3, CHO cells expressing Siglec-6 mutants (C46A, C172A, R to A mutants, F93A, L95A, G175M) (Homo sapiens, UniProt O43699, Q174A); assay: Cell assay (liposome/EV binding, flow cytometry); format: cell-based; conditions: sheet Figure S28b, 3% GM3-DAG liposomes, Q174A;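 also: AF647 fluorescence intensity from 0.1 mol% AF647–PEG45–DSPE in liposomes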
T3 construct: These new CHO cell lines are the full-length versions of the Siglecs; expressed in transfected cells
T3 sequence (O43699 27-453 Q174A): as the sequence (O43699 27-453 E88A) above, with A62E, Q148A counted along it
Protocol: as §1, §2, §3

[4] = target: T4, CHO cells expressing Siglec-6 mutants (C46A, C172A, R to A mutants, F93A, L95A, G175M) (Homo sapiens, UniProt O43699, R90A); assay: Cell assay (liposome/EV binding, flow cytometry); format: cell-based; conditions: sheet Figure S26a, 3% GM3-DAG liposomes, R90A;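 also: AF647 fluorescence intensity from 0.1 mol% AF647–PEG45–DSPE in liposomes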
T4 construct: These new CHO cell lines are the full-length versions of the Siglecs; expressed in transfected cells
T4 sequence (O43699 27-453 R90A): as the sequence (O43699 27-453 E88A) above, with A62E, R64A counted along it
Protocol: as §1, §2, §3

LAD2 cells = assay: Liposome/EV binding to LAD2 cells by flow cytometry; format: cell-based, human
Protocol: as §2, §3
The LAD2 cell line (a gift from Arnold Kirshenbaum) was cultured in StemPro-34 SFM media (Life Technologies) supplemented with 2 mM L-glutamine, 100 U/ml penicillin, […] streptomycin, and 100 ng/ml recombinant human SCF (PeproTech, Rocky Hill, NJ). […]

[5] = target: T5, Daudi cells transduced with WT Siglec-6 (Homo sapiens, UniProt O43699); assay: Imaging flow cytometry internalization; format: cell-based; conditions: 60 min at 4 or 37 °C
T5 construct: expressed in transfected cells; host or cells: Daudi cells (human B-cell line), lentiviral transduction
T5 sequence (O43699 27-453): as the sequence (O43699 27-453 E88A) above, with A62E counted along it
Protocol: Approximately 2 × 10^5 Daudi cells/well were plated into a 96-well U-bottom microplate and centrifuged at 300 × g for 5 min. The cell pellets were placed on ice, and 50 µL of 100 µM of liposome or 1:20 µL of EVs in RPMI growth medium (Gibco) containing 10% (V/V) fetal bovine serum (FBS; Gibco), 100 U/mL penicillin (Gibco), and 100 µg/mL streptomycin (Gibco) was added to their corresponding wells. Plates were incubated for 1 h at either 4 or 37 °C. After incubation, plates were centrifuged at 300 × g, 5 min, 4 °C then incubated with fluorescently conjugated anti-Siglec-6 antibody (Alexa Fluor 488; 1:250 dilution; R&D Systems) for 25 min at 4 °C. The plates were centrifuged once more at 300 × g, 4 °C, 5 min and the resulting cell pellet was resuspended in 40 µL of flow buffer (1% FBS, 500 µM EDTA Hank’s Balanced Salt Solution pH 7.4). 5000 events were collected for each sample using the ImageStream®X Mk II Flow cytometer (excitation lasers 488 nm and 642 nm, ×60 magnification). Data analysis was performed using IDEAS software, version 6.2.

[6] = tested on: CHO cells expressing Siglec-6/8 chimeras; assay: Cell assay (liposome binding, flow cytometry); format: cell-based, human
Protocol: as §2, §3
The genes for the constructs containing each domain of Siglec-6 to the two others from Siglec-8 were synthesized by GeneArt and designed with a 5’ NheI and 3’ AgeI site immediately before the start codon and stop codon respectively. […]

WT Siglec-6 = WT Siglec-6 (Homo sapiens, UniProt O43699); assay: Binding competition between GM1 GLLs and 5 nGLLs; conditions: 1 mol% GM1 liposomes
WT Siglec-6, sequence (O43699 27-453): as the sequence (O43699 27-453 E88A) above, with A62E counted along it
Source text: Supplementary Fig. 20: Binding competition between GM1 GLLs and 5 nGLLs against WT Siglec-6.
Binding of 1 mol% GM1 liposomes to WT Siglec-6 in the presence of an increasing concentration of 5 mol%
5 nGLLs. Data is presented with a representative flow cytometry histogram and was quantified as the mean
± one standard deviation of the median fluorescent intensity (MFI) from […] three technical replicates. A
Brown-Forsythe and Welch one-way ANOVA was used to compare the binding of liposomes formulated
(1 picture or pasted object on this page, not shown here)

[7] = tested on: Daudi cells transduced with an empty vector; assay: pHrodo internalization assay by flow cytometry; format: cell-based, human; conditions: sheet Figure S42b

Molecule: CCCCCCCCCCCCCCCCOCC(COCCCCCCCCCCCCCCCC)OCc1cn(CCO[C@@H]2O[C@H](CO)[C@@H](O[C@@H]3O[C@H](CO)[C@H](O)[C@H](O[C@]4(C(=O)O)C[C@H](O)[C@@H](NC(C)=O)[C@H]([C@H](O)[C@H](O)CO)O4)[C@H]3O)[C@H](O)[C@H]2O)nn1 [GM3-DAG]
- liposome binding, fluorescence signal (replicates) [1]: 2063 and 2173 and 2053
- liposome binding, fluorescence signal (replicates) [2]: 837 and 738 and 839 and 676
- liposome binding, fluorescence signal (replicates) [3]: 1364 and 1584 and 1412
- liposome binding, fluorescence signal (replicates) [4]: 6321 and 6067 and 6474 and 6517

Molecule: CCCCCCCCCCCCCCCCOCC(COCCCCCCCCCCCCCCCC)OCc1cn(CCO[C@@H]2O[C@H](CO)[C@@H](O[C@@H]3O[C@H](CO)[C@H](O)[C@H](O[C@]4(C(=O)O)C[C@H](O)[C@@H](NC(C)=O)[C@H]([C@H](O)[C@H](O)CO)O4)[C@H]3O)[C@H](O)[C@H]2O)nn1 [nGL 5]
- 5 nGLL binding to LAD2 cells (LAD2 cells): bound robustly
- 5 nGLL binding to LAD2 cells after pre-incubation with a Siglec-6 antibody (LAD2 cells): abrogated
- internalization of 5 nGLLs by imaging flow cytometry [5]: internalize 5 nGLLs at 37 °C but not 4 °C
- 5 liposome binding to chimeras with one individual Siglec-6 domain [6]: none of the three individual Siglec-6 domains supported binding
- 5 nGLL binding to chimera with the first two domains of Siglec-6 [6]: significantly above background
- binding of GM1 GLLs to WT Siglec-6 in presence of increasing concentration of 5 mol% 5 nGLLs (WT Siglec-6): decreased

Molecule: GM3
- liposome internalization signal (replicates) ([7]; Emp-4 (empty vector, 4)): 6.1 and 7 and 8.7 and 6.3
- liposome internalization signal (replicates) ([7]; emp-37 (empty vector, 37)): 11.2 and 11.5 and 13.6 and 13.8
